The results in this text go back to patent publication US11072628B2, “Nucleoside analogues for the treatment of parasitic infections” (UNIVERSITEIT GENT, priority 2017, dated 2021).

For one series, the system named is T. brucei Squib 427. The experiment in a line: In vitro drug susceptibility, T. brucei Squib 427 (resazurin). The format is cell-based, Trypanosoma brucei brucei. As for the experimental part: (§1) All trypanosome strains were cultured in the standard HMI-9 medium supplemented with 10% fetal bovine serum (FBS) at 37° C. in a 5% CO2 atmosphere.
Series [1] relates to T. b. rhodesiense STIB-900. The experiment in a line: In vitro drug susceptibility, T. b. rhodesiense STIB-900 (resazurin). The format is cell-based, Trypanosoma brucei rhodesiense. The protocol:
as §1
In general terms: Alamar Blue is a resazurin reagent that responds to reducing activity.

Another series relates to MRC-5 fibroblasts. The experiment in a line: in vitro. The protocol:
Cytotoxicity was assayed against MRC-5 fibroblasts. Results are depicted in Tables 4 and 5.

The test system of series [2] is T. cruzi Tulahuen CL2 β galactosidase strain. In words: T. cruzi Tulahuen CL2 β galactosidase strain on MRC-5SV2 cells (CPRG). In kind it is cell-based, Trypanosoma cruzi. The protocol: All cultures and assays were conducted at 37° C./5% CO2. […] The results were expressed as % reduction in parasite burdens compared to control wells from which an EC50 was calculated.

Setting [3] is: Table 1, average of 2-4 independent determinations, read-out: T. brucei brucei EC50.
[4] abbreviates: Table 1, average of 2-4 independent determinations, read-out: T. brucei rhod. EC50.
The mark [5] stands for this setting: Table 2, average of 2-3 independent replicates.

Molecules are shown by their SMILES. Like-named read-outs stand apart in the source and are kept apart here.

In the case of `CSC[C@@H]1C[C@@H](O)[C@H](n2cc(Br)c3c(N)ncnc32)O1` [FH9527, 4-amino-5-bromo-N7-(3′-deoxy-5′-thiomethyl-β-D-ribofuranosyl)-pyrrolo[2,3-d]pyrimidine], the 50% effective concentration (EC50) in the series on T. brucei Squib 427 (setting [3]) was 32.5 µM; in series [1] (setting [4]), 22.3 µM; in the series with MRC-5 fibroblasts it was 15.3 µM; in series [2] (setting [5]) it was 25 µM.

With `OC[C@@H]1C[C@@H](O)[C@H](n2cc(Br)c3c(Cl)ccnc32)O1` [FH9540, 3-bromo-4-chloro-N1-(3′-deoxy-β-D-ribofuranosyl)-pyrrolo[2,3-b]pyridine], the EC50 in the series on T. brucei Squib 427 (setting [3]) turned out to be 14.8 µM; in series [1] (setting [4]) it was 28.9 µM; in the series with MRC-5 fibroblasts, 27.2 µM; in series [2], 15 µM.

For `OC[C@@H]1C[C@@H](O)[C@H](n2ccc3c(Cl)ccnc32)O1` [FH9541, 4-chloro-N1-(3′-deoxy-β-D-ribofuranosyl)-pyrrolo[2,3-b]pyridine], the concentration giving a half-maximal response (EC50) is 31.2 µM with T. brucei Squib 427 (setting [3]), 7.97 µM in series [1] (setting [4]), more than 64 µM with MRC-5 fibroblasts and more than 64 µM in series [2].

For `Nc1ccnc2c1c(Br)cn2[C@@H]1O[C@H](CO)C[C@H]1O` [FH9549, 3-bromo-4-amino-N1-(3′-deoxy-β-D-ribofuranosyl)-pyrrolo[2,3-b]pyridine], the EC50 in the series on T. brucei Squib 427 (setting [3]) is 35.2 µM; in series [1] (setting [4]) it was more than 64 µM; with MRC-5 fibroblasts, more than 64 µM; in series [2] it was more than 64 µM.

Consider `Nc1ccnc2c1ccn2[C@@H]1O[C@H](CO)C[C@H]1O` [FH9550, 4-amino-N1-(3′-deoxy-β-D-ribofuranosyl)-pyrrolo[2,3-b]pyridine], for which the EC50 with T. brucei Squib 427 (setting [3]) is more than 64 µM; in series [1] (setting [4]) it was 30.8 µM; in the series on MRC-5 fibroblasts, more than 64 µM; in series [2], more than 64 µM.

On to `Nc1ncnc2c1c(Br)cn2[C@@H]1OC(CO)(CO)C[C@H]1O` [FH9561, 4-amino-5-bromo-N7-(3′-deoxy-4′-hydroxymethyl-β-D-ribofuranosyl)-pyrrolo[2,3-d]pyrimidine], for which the EC50 in the series on T. brucei Squib 427 (setting [3]) is 26.8 µM; in series [1] (setting [4]) it was 5.6 µM; with MRC-5 fibroblasts it was more than 64 µM; in series [2] (setting [5]) it was more than 64 µM.

With `CC(C)c1ccc(-c2cn([C@@H]3O[C@H](CO)C[C@H]3O)c3ncnc(N)c23)cc1` [FH9574, 4-amino-5-(4-isopropylphenyl)-N7-(3′-deoxy-β-D-ribofuranosyl)-pyrrolo[2,3-d]pyrimidine], the EC50 in the series with T. brucei Squib 427 (setting [3]) was more than 64 µM; in series [1] (setting [4]) it was 55.9 µM; with MRC-5 fibroblasts, 24.9 µM; in series [2] (setting [5]) it was 8.5 µM.

Consider `Nc1ncnc2c1c(-c1ccc3ccccc3c1)cn2[C@@H]1O[C@H](CO)C[C@H]1O` [FH9575, 4-amino-5-(2-naftyl)-N7-(3′-deoxy-β-D-ribfuranosyl)-pyrrolo[2,3-d]pyrimidine], for which the EC50 with T. brucei Squib 427 (setting [3]) came out at 18.6 µM; in series [1] (setting [4]), 2 µM; in the series on MRC-5 fibroblasts, 5 µM; in series [2] (setting [5]), 0.72 µM.

For the compound `CCSC[C@@H]1C[C@@H](O)[C@H](n2cc(Br)c3c(N)ncnc32)O1` [FH9590, 4-amino-5-bromo-N7-(3′-deoxy-5′-thio-ethyl-β-D-ribofuranosyl)-pyrrolo[2,3-d]pyrimidine], the EC50 with T. brucei Squib 427 (setting [3]) stood at 32.9 µM; in series [1] (setting [4]) it was 10.6 µM; in the series with MRC-5 fibroblasts, 25.8 µM; in series [2] (setting [5]), 35.7 µM.

Regarding `Nc1ncnc2c1c(SC(F)(F)F)cn2[C@@H]1O[C@H](CO)C[C@H]1O` [FH9605, 4-amino-5-trifluoromethylthio-N7-(3′-deoxy-β-D-ribofuranosyl)-pyrrolo[2,3-d]pyrimidine], the EC50 in the series with T. brucei Squib 427 (setting [3]) was found to be 27.2 µM; in series [1] (setting [4]), 21 µM; in the series on MRC-5 fibroblasts, 18.6 µM; in series [2] (setting [5]), 26 µM.

`Nc1ncnc2c1ccn2[C@@H]1O[C@H](COS(N)(=O)=O)C[C@H]1O` [FH9608, 4-amino-N7-(3′-deoxy-5′-O-sulfamoyl-β-D-ribofuranosyl)-pyrrolo[2,3-d]pyrimidine]: the EC50 in the series with T. brucei Squib 427 (setting [3]) was 4.6 µM; in series [1] (setting [4]) it was 0.87 µM; in the series on MRC-5 fibroblasts it was 5.09 µM; in series [2] (setting [5]) it was 9.91 µM.

For `CO[C@@H]1C[C@@H](CO)O[C@H]1n1cc(Br)c2c(N)ncnc21` [FH9616, 4-amino-5-bromo-N7-(2′-O-methyl-3′-deoxy-β-D-ribofuranosyl)-pyrrolo[2,3-d]pyrimidine], the concentration for a half-maximal effect (EC50) in the series on T. brucei Squib 427 (setting [3]) was 32.5 µM; in series [1] (setting [4]), 25.4 µM; in the series with MRC-5 fibroblasts, more than 64 µM; in series [2] (setting [5]), more than 64 µM.

On to `Nc1ncnc2c1cc(Br)n2[C@@H]1O[C@H](CO)C[C@H]1O` [FH10622, 4-amino-6-bromo-N7-(3′-deoxy-β-D-ribfuranosyl)-pyrrolo[2,3-d]pyrimidine], for which the EC50 is 4.97 µM in the series with T. brucei Squib 427 (setting [3]), 1.02 µM in series [1] (setting [4]), more than 64 µM in the series on MRC-5 fibroblasts and more than 64 µM in series [2] (setting [5]).

In the case of `COC[C@@H]1C[C@@H](O)[C@H](n2cc(Br)c3c(N)ncnc32)O1` [FH10626, 4-amino-5-bromo-N7-(3′-deoxy-5′-O-methyl-β-D-ribofuranosyl)-pyrrolo[2,3-d]pyrimidine], the EC50 in the series on T. brucei Squib 427 (setting [3]) was found to be 32 µM; in series [1] (setting [4]), 18.7 µM; with MRC-5 fibroblasts it was 22.7 µM; in series [2] (setting [5]), 50.4 µM.

For `Nc1ncnc2c1c(Br)cn2[C@H]1CC[C@@H](CO)O1` [FH10638, 4-amino-5-bromo-N7-(2′,3′-dideoxy-β-D-ribofuranosyl)-pyrrolo[2,3-d]pyrimidine], the EC50 in the series on T. brucei Squib 427 (setting [3]) stood at 57.9 µM; in series [1] (setting [4]), 24.4 µM; with MRC-5 fibroblasts, 16.4 µM; in series [2] (setting [5]), 43.3 µM.

Regarding `Cc1cccc(-c2cn([C@@H]3O[C@H](CO)C[C@H]3O)c3ncnc(N)c23)c1` [FH10639, 4-amino-5-(3-methylphenyl)-N7-(3′-deoxy-β-D-ribofuranosyl)-pyrrolo[2,3-d]pyrimidine], the EC50 was 30.5 µM in the series on T. brucei Squib 427 (setting [3]), 11.2 µM in series [1] (setting [4]), more than 64 µM in the series on MRC-5 fibroblasts and 5.15 µM in series [2] (setting [5]).

With `Nc1ncnc2c1c(-c1cccc(C(F)(F)F)c1)cn2[C@@H]1O[C@H](CO)C[C@H]1O` [FH10640, 4-amino-5-(3-trifluoromethylphenyl)-N7-(3′-deoxy-β-D-ribofuranosyl)-pyrrolo[2,3-d]pyrimidine], the EC50 with T. brucei Squib 427 (setting [3]) was 8.6 µM; in series [1] (setting [4]) it was 1.77 µM; in the series with MRC-5 fibroblasts it was 49.6 µM; in series [2] (setting [5]) it was 11.2 µM.

In the case of `COc1ccc(-c2cn([C@@H]3O[C@H](CO)C[C@H]3O)c3ncnc(N)c23)cc1Cl` [FH10645], the EC50 is 7.13 µM in the series on T. brucei Squib 427 (setting [3]), 2.51 µM in series [1] (setting [4]), more than 64 µM with MRC-5 fibroblasts and 3.3 µM in series [2] (setting [5]).

As to `Cc1ccc(-c2cn([C@@H]3O[C@H](CO)C[C@H]3O)c3ncnc(N)c23)cc1C` [FH10653, 4-amino-5-(3,4-dimethylphenyl)-N7-(3′-deoxy-β-D-ribofuranosyl)-pyrrolo[2,3-d]pyrimidine], the EC50 in the series on T. brucei Squib 427 (setting [3]) was determined as 8.81 µM; in series [1] (setting [4]) it was 2.17 µM; in the series on MRC-5 fibroblasts, 22.3 µM; in series [2] (setting [5]), 1.37 µM.

Regarding `Nc1ncnc2c1c(-c1ccc3ccccc3n1)cn2[C@@H]1O[C@H](CO)[C@@H](O)[C@H]1O` [MS1017], the EC50 in the series with T. brucei Squib 427 (Table 4, average of 2-6 independent determinations, read-out: T.b. brucei EC50) is 6.45 µM; in series [1] (Table 4, average of 2-6 independent determinations, read-out: T.b. rhod. EC50) it was 3.72 µM; with MRC-5 fibroblasts it was more than 64 µM; in series [2] (Table 5, average of 2-4 independent replicates), 34.1 µM.

The EC50 is the concentration needed to bring the measured effect to its halfway point.
